“Also recorded” adds a separate entry of the source.
Assays:
diabetic Lewis rats = experiment: Blood glucose lowering in streptozotocin-diabetic rats; assay type: in vivo, rat; conditions: streptozotocin-diabetic male Lewis rats, 1.5 U/kg subcutaneously, 0-90 min
Experimental: Male Lewis rats (˜250 g body weight) were rendered diabetic with streptozotocin. […] Rats were injected subcutaneously at time=0 with 1.5 U/kg body weight in 100 μl of diluent. Blood was obtained from clipped tip of the tail at time 0 and every 10 minutes up to 90 min. Blood glucose was measured using a Hypoguard Advance Micro-Draw meter.

[1] = system: human breast cancer cell line MCF-7; experiment: Mitogenicity in cell culture (cell growth, DNA content); assay type: cell-based; conditions: MCF-7, 3-days exposure, cell number and DNA content
Experimental: Growth media were supplemented with 10% fetal bovine serum (FBS) (Invitrogen Life Technologies, Inc., Carlsbad, AA), penicillin (100 U/ml) and streptomycin (100 ug/mL). Approximately 1.0×10^5 cells were seeded into 35-mm dishes and cultured until subconfluent. Two assays were employed: (i) Cell-growth curves were determined by hemocytometry. Approximately 5×10^4 were seeded into a 24-well plate and cultured for 24 h. After 24 hour, the medium was removed and replaced with fresh medium containing 0.1% BSA. […] Cell numbers were determined after 3-days exposure to the hormones. (ii) Cell DNA content was determined using a DNA measurement kit (Invitrogen) following 3-days exposure to the hormones in cell culture as above.

[2] = target: T1, Insulin-like Growth Factor receptor (IGFR) (Homo sapiens, UniProt P08069); experiment: IGFR binding assay (microtiter plate antibody assay); conditions: relative to IGF-1
T1 construct: expressed in transfected cells; host or cells: PEAK rapid cells, transient transfection, Triton X-100 lysate
Experimental: Receptor-Binding Assays. […] Subsequent to incubation, mixtures are diluted with 1 ml of ice-cold buffer and centrifuged (10,000 g) for 5 min at 4° C. The supernatant will then be removed by aspiration, and the membrane pellet counted for radioactivity. […] Binding data were analyzed by a two-site sequential model. A corresponding microtiter plate antibody assay using the IGF Type I receptor was employed to assess cross-binding to this homologous receptor.
DNA for transfection was prepared according to the method of Mynarcik et al. (J. Biol. Chem., 1997, 272, pp 18650-18655). The receptor cDNAs were expressed transiently in PEAK rapid cells using polyethyleneimine. Cells were harvested by lysis in 0.15M NaCl and 0.1M Tris (pH 8) containing 1% (v/v) Triton X-100 and protease inhibitor cocktail three days post-transfection. Lysates were stored at −80° C. until assay. Receptor-binding assays were performed as described by Mynarcik. Microtiter strip plates (Nunc Maxisorb) were incubated overnight at 4° C. with anti-FLAG IgG ([…] of a […] solution in PBS). […] Binding data were analyzed by a two-site sequential model with homologous or heterologous labeled and unlabeled ligands to obtain dissociation constants as described by Whittaker et al. (J. Biol. Chem., 2001, 276, pp 43980-43986).

[3] = Fibrillation assay (thioflavin T fluorescence); assay type: physicochemical; conditions: zinc free, 60 μM, pH 7.4, 37° C., tilting table
Experimental: Samples (in triplicate) were placed in sealed glass vials and placed on an automated tilting table at 37° C. At successive times aliquots were withdrawn and analyzed by a thioflavin T (ThT) fluorescence spectroscopy assay to determine the onset of fibrillation as follows.
Thioflavin T (ThT) was made 1 mM in double-distilled water and stored at 4° C. in the dark. To monitor fibrillation, 10-μl aliquots of samples were obtained at indicated time points and were mixed with 3 ml of ThT assay buffer (5 μM ThT in 50 mM Tris-HCl (pH 7.5) and 100 mM NaCl). Fluorescence measurements were performed using an Aviv spectrofluorometer in 1-cm quartz cuvettes. Emission spectra were collected from 470 to 500 nm following excitation at 450 nm; the integration time was 1 s. ThT in buffer without protein was used as baseline. The fibrillation lag time is defined as the time required to observe twofold enhancement in ThT emission. The threshold of twofold-enhanced ThT fluorescence is followed a rapid increase in turbidity associated with elongation of mature fibrils and a further increase in ThT fluorescence.

[4] = Thermodynamic stability by guanidine denaturation; assay type: physicochemical; conditions: 37° C. and pH 7.4
Experimental: Circular Dichroism—Samples were dissolved in either 10 mM phosphate and 100 mM KCl (pH 7.4) or 0.01 N HCl (pH 2.0) at a protein concentration of 25 μM. To remove particulate matter and protein aggregates, samples were filtered ([…]; Satorius, Goetlingen, Germany). Spectra, acquired with an Aviv spectropolarimeter (Aviv Biomedical, Inc., Lakewood, N.J.), were normalized. […]

T1 sequence (P08069 31-736 limits assumed): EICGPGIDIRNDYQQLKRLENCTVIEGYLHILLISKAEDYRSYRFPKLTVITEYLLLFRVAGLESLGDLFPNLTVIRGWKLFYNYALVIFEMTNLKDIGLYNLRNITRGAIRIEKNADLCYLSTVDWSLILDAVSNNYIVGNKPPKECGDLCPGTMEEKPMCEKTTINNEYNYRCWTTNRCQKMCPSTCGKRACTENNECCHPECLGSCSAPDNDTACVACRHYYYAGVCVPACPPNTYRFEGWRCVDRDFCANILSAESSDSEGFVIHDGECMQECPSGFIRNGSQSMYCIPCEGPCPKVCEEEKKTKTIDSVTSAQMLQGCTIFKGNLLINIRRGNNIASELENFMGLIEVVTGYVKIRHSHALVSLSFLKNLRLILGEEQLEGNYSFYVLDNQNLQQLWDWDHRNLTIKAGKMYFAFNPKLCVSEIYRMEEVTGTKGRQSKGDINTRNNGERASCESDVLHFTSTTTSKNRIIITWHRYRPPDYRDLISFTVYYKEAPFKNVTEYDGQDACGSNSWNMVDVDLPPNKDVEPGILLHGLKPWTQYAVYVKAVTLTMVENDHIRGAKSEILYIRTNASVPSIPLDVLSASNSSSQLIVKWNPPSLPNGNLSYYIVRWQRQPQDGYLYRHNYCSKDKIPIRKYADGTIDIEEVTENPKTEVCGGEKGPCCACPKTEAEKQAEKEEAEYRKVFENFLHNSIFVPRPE
T1 sequence (P08069 741-1367 partner limits assumed): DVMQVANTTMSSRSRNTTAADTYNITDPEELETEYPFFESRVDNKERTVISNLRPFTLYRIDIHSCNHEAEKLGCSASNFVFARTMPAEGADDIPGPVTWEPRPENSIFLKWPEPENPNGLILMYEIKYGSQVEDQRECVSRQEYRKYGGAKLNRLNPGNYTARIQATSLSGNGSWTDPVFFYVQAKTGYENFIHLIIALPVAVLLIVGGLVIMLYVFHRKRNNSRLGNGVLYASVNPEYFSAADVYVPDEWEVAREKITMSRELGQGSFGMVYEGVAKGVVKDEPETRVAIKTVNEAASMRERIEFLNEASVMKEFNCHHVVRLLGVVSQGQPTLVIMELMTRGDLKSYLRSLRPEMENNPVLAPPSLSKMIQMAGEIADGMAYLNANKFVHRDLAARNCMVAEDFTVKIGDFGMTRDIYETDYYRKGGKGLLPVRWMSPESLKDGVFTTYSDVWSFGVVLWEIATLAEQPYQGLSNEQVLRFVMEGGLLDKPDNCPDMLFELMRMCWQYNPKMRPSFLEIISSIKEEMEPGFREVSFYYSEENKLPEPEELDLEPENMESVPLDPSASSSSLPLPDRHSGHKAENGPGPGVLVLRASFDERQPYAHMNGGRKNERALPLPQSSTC

Substance | rate of decrease of blood glucose concentration (diabetic Lewis rats) | mitogenicity ([1]; listed as 57 mer single-chain insulin analogue) | IGFR Relative Affinity [2] | Lag time (days ± 10%) [3] | ΔGu [4] | mitogenicity [1]
57mer single-chain analogue: 57-mer single-chain insulin, SEQ ID NO: 26; His^A8, Asp^B10, Asp^B28, Pro^B29 substitutions; six-residue linker GGGPRR between B30 and A1 | 62.0±16.3 mg/dL per h | indistinguishable from human insulin; also recorded: significantly less mitogenic than IGF-I |  |  |  | 
IGF-I |  |  | 1 |  |  | 
Corresponding two-chain analogue: two-chain insulin analogue with His^A8, Asp^B10, Asp^B28, Pro^B29 substitutions; SEQ ID NOS: 28 and 29 | 53.2±11.7 mg/dL per h |  |  | 70 ± 5 days | 3.6 kcal/mol | intermediate between the single-chain insulin analogue
